# Source: PMC3913610, “Antitumor Activity and Induction of TP53-Dependent Apoptosis toward Ovarian Clear Cell Adenocarcinoma by the Dual PI3K/mTOR Inhibitor DS-7423” (PLoS ONE, 2014)
# Key:
# OCCA cell lines = assay: Apoptosis by annexin-V FITC/PI staining, OCCA panel; type: cell-based
# Procedure: (§1) Cells (5×10^5) were cultured in 60-mm plates for 24 h before treatment with either DMSO (control), and 156 nM DS-7423, or 2,500 nM DS-7423 for 48 h. Cells were trypsinized, washed twice with PBS, and then analyzed after double staining with annexin-V fluorescein isothiocyanate (FITC) (Abcam, Cambridge, MA) and PI. The apoptotic cell population was analyzed using flow cytometry. All experiments were performed three times.
# RMG-I cells = assay: Proliferation (MTT/WST-8) assay; type: cell-based; details: Homo sapiens, RMG-1, 72 h
# Procedure: (§2) Assays of the suppression of cell proliferation were performed with the Cell Counting Kit-8 using the tetrazolium salt WST-8 [2-(2-methoxy-4-nitrophenyl)-3-(4-nitrophenyl)-5-(2,4-disulfophenyl)-2H-tetrazolium, monosodium salt] (Dojindo, Tokyo, Japan) for the methyl thiazolyl tetrazolium (MTT) assay. […] Proliferation was quantified by monitoring the changes in the absorbance at 450 nm, which were normalized relative to the absorbance of cell cultures treated with DMSO alone.
# OVMANA cells = assay: Proliferation (MTT/WST-8) assay; type: cell-based; details: 72 h
# Procedure: as §2
# OVTOKO cells = assay: Proliferation (MTT/WST-8) assay; type: cell-based; details: 72 h
# Procedure: as §2
# JHOC-7 cells = assay: Proliferation (MTT/WST-8) assay; type: cell-based; details: JHOC-7, 72 h
# Procedure: as §2
# SKOV3 cells = assay: Proliferation (MTT/WST-8) assay; type: cell-based; details: Homo sapiens, SK-OV-3; SKOV3, 72 h
# Procedure: as §2
# [1] = tested on: phosphorylation of AKT, S6, FOXO1/3a in OCCA cells; assay: Immunoblotting of PI3K/mTOR signaling in OCCA cells; type: cell-based
# From the text: Signals were detected using BioRAD western blotting systems (BioRAD, Hercules, CA) with the detection reagents ECL advance and ECL select (GE Healthcare, Piscataway, NJ).
# nine OCCA cell lines = assay: Proliferation (MTT/WST-8) assay, OCCA panel; type: cell-based; details: 156 nM, 72 h
# Procedure: as §2
# 227 kinases = assay: Kinase selectivity panel; type: biochemical; details: 227 kinases tested, except MLK1 and NEK2
# mTOR = mTOR (Homo sapiens, UniProt P42345); assay: mTOR inhibition; type: biochemical
# OVISE cells [2] = assay: Proliferation (MTT/WST-8) assay; type: cell-based; details: siRNA to TP53, MTT assay
# Procedure: as §2
# OVISE cells [3] = assay: Apoptosis by annexin-V FITC/PI staining; type: cell-based
# Procedure: as §1
# Cells were plated at approximately 30% confluence in 100-mm plates and incubated for 24 h before transfection with small interfering RNA (siRNA) duplexes at the concentrations indicated, using Lipofectamine […] RNAiMAX (Invitrogen, Carlsbad, CA) and Opti-MEM medium (Life Technologies, Grand Island, NY). The siRNAs specific for TP53 were purchased from Invitrogen. A negative control kit was used as a control (Invitrogen, Carlsbad, CA).
# [4] = tested on: cleavage of PARP in OVMANA cells; assay: Cleaved PARP immunoblotting; type: cell-based
# From the text: (§3) Antibodies to total Akt, phosphorylation of Akt (p-Akt) (Ser473, Thr308), p-GSK3beta (Ser9), total S6, p-S6 (Ser235/236, Ser 240/244), p-4EBP1 (Thr37/46), p-FOXO1 (Thr24), p-FOXO3a (Thr32), p-MDM2 (Ser 166), p-TP53 (Ser15), cleaved-PARP, and PARP (Cell Signaling Technology, Beverly, MA), beta-actin (Sigma-Aldrich, St. Louis, MO), TP53 (Santa Cruz, CA, USA) and p-TP53 (Ser46) (Calbiochem, Billerica, MA) were used for immunoblotting, as recommended by the manufacturers. Signals were detected using BioRAD western blotting systems (BioRAD, Hercules, CA) with the detection reagents ECL advance and ECL select (GE Healthcare, Piscataway, NJ).
# RMG-I xenografts = assay: Tumor xenograft in nude mice; type: in vivo
# From the text: (§4) Specific pathogen-free female nude mice (BALB/cAJcl-nu/nu), 6 weeks old, were purchased from CLEA Japan, Inc (Tokyo, Japan). Subcutaneous xenograft tumors in the mice were established by the injection of a 100-μL suspension containing 5×10^6 cells of the TOV-21, RMG-I, or ES-2 lines in PBS. Tumors were removed after exponential growth, cut into 3-mm pieces, and transplanted subcutaneously into other mice for RMG-I cells. DS-7423 was suspended in 0.5 w/v% Methyl Cellulose 400 solution (Wako Pure Chemical Industries, Ltd.) Oral daily administration of DS-7423 started 8–22 days later, following the injection of the cells (5–6×10^6 cells/0.1 mL). One week after tumor transplantation, mice were assigned randomly to one of the […] treatment regimens: (1) non-treated control, (2) DS-7423 (1.5 mg/kg), (3) DS-7423 (3 mg/kg), and (4) DS-7423 (6 mg/kg). Each treatment group consisted of five mice. DS-7423 was injected orally (p.o.) once a day. Tumor volumes (in mm^3) were calculated by the formula: ([major axis] × [minor axis]^2/2). After the treatment, the tumors were removed and analyzed by western blotting. Tumor weight (wet weight) was measured, and the average weight was calculated for each group.
# TOV-21G xenografts = assay: Tumor xenograft in nude mice; type: in vivo
# From the text: as §4
# seven OSA lines = assay: Proliferation (MTT/WST-8) assay, OSA panel; type: cell-based; details: four of seven OSA cell lines
# Procedure: as §2
# OCCA cells = assay: Cell cycle analysis (flow cytometry), OCCA panel; type: cell-based; details: 48 h
# Procedure: Cells (5×10^5) were seeded in 60-mm dishes and treated with DS-7423 for 48 h. Floating and adherent cells were collected by trypsinization and washed twice with phosphate buffer saline (PBS). Cells were resuspended in cold 70% ethanol and maintained at 4°C overnight. After being washed twice with PBS, cells were incubated in RNase A (0.25 mg/mL) (Sigma) for 30 min at 37°C, followed by staining with propidium iodide (PI; 50 μg/mL) (Sigma) at 4°C for 30 min in the dark. Cells were then analyzed using flow cytometry (BD FACS Calibur HG, Franklin Lakes, NJ). Cell cycle distribution was analyzed using CELL Quest pro ver. 3.1. […]. All experiments were repeated three times.
# [5] = molecular target: Never-In-Mitosis Gene A (NIMA)-related kinase 2 (NEK2) (Homo sapiens, UniProt P51955); assay: Kinase selectivity panel, NEK2; type: biochemical; details: NEK2, relevant activity observed
# PI3Kα = PI3Kα (Homo sapiens, UniProt P42336); assay: PI3Kα inhibition; type: biochemical
# PI3Kγ = PI3Kγ (Homo sapiens, UniProt P48736); assay: PI3Kγ inhibition; type: biochemical
# ES-2 xenografts = assay: Tumor xenograft in nude mice; type: in vivo
# From the text: as §4
# Supplementary file pone.0087220.s002.pptx: Figure S2 In vivo effect of DS-7423 in nude mice. […] The levels of p-Akt (Thr-308) and p-S6 (Ser-240/244) were assessed. […]
# [6] = tested on: p-MDM2, p-TP53 in OVMANA cells; assay: Immunoblotting of p-MDM2 and p-TP53; type: cell-based
# From the text: as §3
# PI3Kδ = PI3Kδ (Homo sapiens, UniProt O00329); assay: PI3Kδ inhibition; type: biochemical
# [7] = molecular target: Mixed Lineage Kinase 1 (MLK1) (Homo sapiens, UniProt P80192); assay: Kinase selectivity panel, MLK1; type: biochemical; details: MLK1, relevant activity observed
# [8] = tested on: TP53-regulated genes in OVMANA and OVISE cells; assay: Semi-quantitative RT-PCR of TP53 target genes; type: cell-based
# From the text: Total RNAs of these cells were extracted with the RNeasy Mini Kit according to the manufacturer's instructions (QIAGEN, Valencia, CA). cDNAs were synthesized from total RNAs by using the Super Script III First-strand Synthesis SuperMix (Invitrogen, Carlsbad, CA). The exponential phase of the RT-PCR occurred between 15–30 cycles, and these cycles were monitored to allow semi-quantitative comparisons among the cDNAs developed from identical reactions. The primers and conditions for the amplification of p53AIP1, p21, and GAPDH sequences were described previously. The PCR primers for PUMA were 5′-[…]-3′ (forward) and 5′-[…] CTC-3′ (reverse). The primers for p53R2, TIGAR, GLS2, GADD45, 14-3-3 sigma and PAI-1 were described previously [30]–[35]. Each PCR regimen involved a 2-min initial denaturation step (94°C), which was followed by 15–30 cycles at 94°C for 30 s, then at 55°C for 30 s, and finally, at 72°C for 30 s using a Thermal Cycler Gene Atlas instrument (ASTEC, Fukuoka, Japan).
# PI3Kβ = PI3Kβ (Homo sapiens, UniProt P42338); assay: PI3Kβ inhibition; type: biochemical
# recurrent OCCA = tested on: recurrent OCCA; design: method as in PMID 21243393; details: six cases, weekly administration, recurrent OCCA patients ref 39; cited from earlier work
# Sequence of PI3Kβ (P42338 whole entry): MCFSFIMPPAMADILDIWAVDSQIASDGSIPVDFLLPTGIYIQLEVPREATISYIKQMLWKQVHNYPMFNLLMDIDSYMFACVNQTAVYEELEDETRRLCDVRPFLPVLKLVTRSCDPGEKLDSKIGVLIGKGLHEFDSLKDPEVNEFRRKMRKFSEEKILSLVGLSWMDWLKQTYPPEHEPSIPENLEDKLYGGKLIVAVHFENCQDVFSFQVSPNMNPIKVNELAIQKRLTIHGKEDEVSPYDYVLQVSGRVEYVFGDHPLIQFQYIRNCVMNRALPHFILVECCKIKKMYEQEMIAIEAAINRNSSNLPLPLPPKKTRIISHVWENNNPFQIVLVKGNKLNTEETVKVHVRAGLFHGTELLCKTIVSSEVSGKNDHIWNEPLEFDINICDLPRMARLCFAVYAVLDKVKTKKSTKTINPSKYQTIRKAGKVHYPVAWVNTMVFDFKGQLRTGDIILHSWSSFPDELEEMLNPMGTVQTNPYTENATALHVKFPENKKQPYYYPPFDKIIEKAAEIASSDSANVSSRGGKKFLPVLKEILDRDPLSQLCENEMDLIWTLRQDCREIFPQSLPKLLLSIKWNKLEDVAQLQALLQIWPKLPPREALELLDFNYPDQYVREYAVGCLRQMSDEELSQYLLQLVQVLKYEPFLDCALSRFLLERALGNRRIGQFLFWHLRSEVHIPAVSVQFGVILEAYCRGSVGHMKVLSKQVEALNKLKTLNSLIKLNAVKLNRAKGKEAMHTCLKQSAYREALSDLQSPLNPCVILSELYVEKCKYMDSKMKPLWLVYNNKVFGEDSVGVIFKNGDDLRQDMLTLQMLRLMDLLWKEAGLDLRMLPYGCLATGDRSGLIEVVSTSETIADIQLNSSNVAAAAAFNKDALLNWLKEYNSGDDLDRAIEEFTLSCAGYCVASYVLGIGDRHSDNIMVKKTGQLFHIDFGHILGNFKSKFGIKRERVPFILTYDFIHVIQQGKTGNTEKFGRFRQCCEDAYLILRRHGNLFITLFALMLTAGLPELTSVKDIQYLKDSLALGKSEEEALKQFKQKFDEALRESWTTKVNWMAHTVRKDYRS
# Sequence of PI3Kβ (P27986 whole entry partner): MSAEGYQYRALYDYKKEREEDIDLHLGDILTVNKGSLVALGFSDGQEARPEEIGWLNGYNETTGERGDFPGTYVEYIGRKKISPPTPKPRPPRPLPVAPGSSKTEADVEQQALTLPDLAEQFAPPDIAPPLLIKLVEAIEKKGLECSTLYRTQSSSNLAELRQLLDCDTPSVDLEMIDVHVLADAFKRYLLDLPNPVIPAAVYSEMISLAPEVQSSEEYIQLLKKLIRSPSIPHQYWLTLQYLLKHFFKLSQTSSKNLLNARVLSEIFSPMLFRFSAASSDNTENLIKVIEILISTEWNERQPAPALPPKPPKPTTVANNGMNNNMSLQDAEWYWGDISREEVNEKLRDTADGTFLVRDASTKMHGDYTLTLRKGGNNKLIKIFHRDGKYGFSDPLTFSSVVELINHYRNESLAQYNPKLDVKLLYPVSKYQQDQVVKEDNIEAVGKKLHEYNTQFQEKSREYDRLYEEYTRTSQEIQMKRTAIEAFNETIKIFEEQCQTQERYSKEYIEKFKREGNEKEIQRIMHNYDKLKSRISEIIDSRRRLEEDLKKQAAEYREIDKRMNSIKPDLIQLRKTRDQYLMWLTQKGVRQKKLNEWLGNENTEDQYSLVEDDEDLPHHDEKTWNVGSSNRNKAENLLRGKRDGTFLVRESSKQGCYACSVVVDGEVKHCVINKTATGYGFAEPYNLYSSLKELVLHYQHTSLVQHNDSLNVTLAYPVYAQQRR
# Sequence of PI3Kα (P42336 whole entry): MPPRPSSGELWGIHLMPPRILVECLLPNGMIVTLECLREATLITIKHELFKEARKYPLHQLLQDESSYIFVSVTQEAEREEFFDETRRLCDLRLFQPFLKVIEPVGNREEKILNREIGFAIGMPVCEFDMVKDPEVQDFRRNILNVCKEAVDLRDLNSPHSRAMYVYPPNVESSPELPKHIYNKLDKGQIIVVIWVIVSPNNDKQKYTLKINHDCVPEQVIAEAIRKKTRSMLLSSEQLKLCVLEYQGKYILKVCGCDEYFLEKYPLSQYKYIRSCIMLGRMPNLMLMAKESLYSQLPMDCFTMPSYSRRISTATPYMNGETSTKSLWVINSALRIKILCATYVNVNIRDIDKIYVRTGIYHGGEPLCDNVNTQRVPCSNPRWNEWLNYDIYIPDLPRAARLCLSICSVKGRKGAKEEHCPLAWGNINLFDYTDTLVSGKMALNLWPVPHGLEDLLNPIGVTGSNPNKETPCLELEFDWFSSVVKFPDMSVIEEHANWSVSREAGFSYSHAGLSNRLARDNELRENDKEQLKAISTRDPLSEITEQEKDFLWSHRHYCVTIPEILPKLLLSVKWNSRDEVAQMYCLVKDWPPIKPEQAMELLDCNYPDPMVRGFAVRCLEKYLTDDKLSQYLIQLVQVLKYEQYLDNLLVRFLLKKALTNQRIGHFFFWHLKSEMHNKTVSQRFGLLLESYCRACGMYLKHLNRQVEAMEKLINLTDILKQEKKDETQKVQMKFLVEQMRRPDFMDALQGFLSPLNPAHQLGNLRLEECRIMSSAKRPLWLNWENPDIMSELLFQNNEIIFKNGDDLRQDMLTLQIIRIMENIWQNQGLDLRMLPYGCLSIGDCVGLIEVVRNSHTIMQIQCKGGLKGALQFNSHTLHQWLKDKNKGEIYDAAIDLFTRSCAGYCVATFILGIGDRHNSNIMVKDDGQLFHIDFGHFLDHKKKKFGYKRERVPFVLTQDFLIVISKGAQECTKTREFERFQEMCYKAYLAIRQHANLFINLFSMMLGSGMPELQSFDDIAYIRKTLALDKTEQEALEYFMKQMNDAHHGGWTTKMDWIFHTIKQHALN
# Sequence of PI3Kα (P27986 whole entry partner): as the sequence (P27986 whole entry partner) above
# Sequence of Never-In-Mitosis Gene A (NIMA)-related kinase 2 (NEK2) (P51955 whole entry, species assumed): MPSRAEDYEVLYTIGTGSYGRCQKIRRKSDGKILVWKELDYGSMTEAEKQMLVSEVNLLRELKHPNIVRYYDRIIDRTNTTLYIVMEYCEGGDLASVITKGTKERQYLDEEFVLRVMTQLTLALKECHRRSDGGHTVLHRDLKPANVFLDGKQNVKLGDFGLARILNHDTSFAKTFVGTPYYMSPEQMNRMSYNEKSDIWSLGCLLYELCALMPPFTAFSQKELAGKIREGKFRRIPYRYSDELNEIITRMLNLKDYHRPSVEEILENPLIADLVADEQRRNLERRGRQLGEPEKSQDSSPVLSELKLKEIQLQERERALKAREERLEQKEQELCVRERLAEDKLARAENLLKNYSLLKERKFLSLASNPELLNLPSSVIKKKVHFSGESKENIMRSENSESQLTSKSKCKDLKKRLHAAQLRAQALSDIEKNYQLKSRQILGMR
# Sequence of Mixed Lineage Kinase 1 (MLK1) (P80192 whole entry, species assumed): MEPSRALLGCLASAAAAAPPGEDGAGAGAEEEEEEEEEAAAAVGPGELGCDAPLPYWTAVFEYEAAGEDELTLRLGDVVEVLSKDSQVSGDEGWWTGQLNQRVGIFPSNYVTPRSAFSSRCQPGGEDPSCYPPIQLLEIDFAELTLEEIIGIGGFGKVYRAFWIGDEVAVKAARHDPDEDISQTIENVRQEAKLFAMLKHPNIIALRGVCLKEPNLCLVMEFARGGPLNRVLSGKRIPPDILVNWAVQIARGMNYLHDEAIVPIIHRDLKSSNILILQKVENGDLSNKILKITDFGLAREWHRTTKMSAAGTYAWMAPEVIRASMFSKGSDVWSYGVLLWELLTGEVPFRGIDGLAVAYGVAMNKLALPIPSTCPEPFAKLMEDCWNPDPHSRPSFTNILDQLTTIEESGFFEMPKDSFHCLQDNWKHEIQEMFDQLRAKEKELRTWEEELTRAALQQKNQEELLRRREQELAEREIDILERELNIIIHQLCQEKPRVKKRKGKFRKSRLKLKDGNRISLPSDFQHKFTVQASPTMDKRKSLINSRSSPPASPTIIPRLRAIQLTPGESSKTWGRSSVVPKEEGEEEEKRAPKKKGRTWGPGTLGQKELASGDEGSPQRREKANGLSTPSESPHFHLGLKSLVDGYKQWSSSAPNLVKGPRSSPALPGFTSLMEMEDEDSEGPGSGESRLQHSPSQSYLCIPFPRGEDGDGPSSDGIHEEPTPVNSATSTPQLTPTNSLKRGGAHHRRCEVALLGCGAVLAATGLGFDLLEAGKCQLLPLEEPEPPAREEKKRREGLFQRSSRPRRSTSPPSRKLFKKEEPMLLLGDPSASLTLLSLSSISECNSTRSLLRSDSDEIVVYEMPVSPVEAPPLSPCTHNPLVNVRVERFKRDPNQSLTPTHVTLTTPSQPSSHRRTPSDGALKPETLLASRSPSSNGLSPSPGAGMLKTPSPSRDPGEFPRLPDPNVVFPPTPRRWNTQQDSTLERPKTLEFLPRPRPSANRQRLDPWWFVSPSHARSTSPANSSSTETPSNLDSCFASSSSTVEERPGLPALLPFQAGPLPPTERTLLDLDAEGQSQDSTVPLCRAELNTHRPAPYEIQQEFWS
structure (smiles),measurement,setting,value
CO[C@H]1C[C@@H]2CC[C@@H](C)[C@@](O)(O2)C(=O)C(=O)N2CCCC[C@H]2C(=O)O[C@H]([C@H](C)C[C@@H]2CC[C@@H](O)[C@H](OC)C2)CC(=O)[C@H](C)/C=C(\C)[C@@H](O)[C@@H](OC)C(=O)[C@H](C)C[C@H](C)/C=C/C=C/C=C/1C [rapamycin],apoptotic cell death,"OCCA cell lines; OCCA cells, even at 2,500 nM",≤ 5%
same,IC50,RMG-I cells,> 2560 nM
same,IC50,OVMANA cells,> 2560 nM
same,IC50,OVTOKO cells,> 2560 nM
same,IC50,JHOC-7 cells,> 2560 nM
same,IC50,SKOV3 cells,> 2560 nM
same,levels of p-FOXO3a and p-FOXO1,"[1]; 2,500 nM, OVISE",increased
same,suppression of p-Akt,"[1]; any dose (0 to 2,500 nM), OVISE",did not suppress
CC(=O)N1CCN(c2nc3c(N4CCOCC4)nc(-c4cnc(N)nc4)nc3n2CC(F)(F)F)C[C@H]1C [DS-7423],inhibition of cell growth,nine OCCA cell lines,70%–97%
same,apoptosis (annexin-V FITC/PI),"OCCA cell lines; 156 nM, 48 h, five of the six cell lines that lacked mutations in TP53",4–12%
same,apoptosis (annexin-V FITC/PI),"OCCA cell lines; 2,500 nM, 48 h, five cell lines without TP53 mutations",10–16%
same,ratio of apoptotic cells,OCCA cell lines; even at high concentrations,less than 20%
same,apoptosis (annexin-V FITC/PI),"OCCA cell lines; three cell lines with TP53 mutations, any of the doses tested",≤ 5%
same,Relevant activity (IC50 <200 nM),227 kinases,not observed
same,IC50,mTOR,34.9 nM
same,anti-proliferative effect when combined with knockdown of TP53,OVISE cells [2],significantly reduced
same,percentage of apoptotic cells compared with rapamycin,OVISE cells [3]; OVISE cells,significantly higher
same,apoptotic cell death after knockdown of TP53,"OVISE cells [3]; OVISE, TP53 siRNA, 156 or 2,500 nM, 48 h",rescued
same,concentration at which induction of cleaved-PARP was observed,"[4]; 4 h, dose-dependent up to 2,500 nM",39 nM
same,time to cleavage of PARP,"[4]; OVMANA cells without mutations in TP53, 156 nM",≤ 2 h
same,"adverse effects, including body weight loss of more than 10%","RMG-I xenografts; RMG-I xenograft mice, oral daily 1.5, 3 or 6 mg/kg",No significant adverse effects
same,levels of p-AKT (Thr308) and p-S6 (Ser240/244) in xenografts,"RMG-I xenografts; RMG-I xenografts, 2 and 6 h after last administration",suppressed
same,tumor growth of xenografts,"RMG-I xenografts; RMG-I, oral daily 1.5, 3 or 6 mg/kg, dose-dependent",significantly suppressed
same,"adverse effects, including body weight loss of more than 10%","TOV-21G xenografts; TOV-21G xenograft mice, oral daily 1.5, 3 or 6 mg/kg",No significant adverse effects
same,levels of p-AKT (Thr308) and p-S6 (Ser240/244) in xenografts,"TOV-21G xenografts; TOV-21G xenografts, 2 and 6 h after last administration",suppressed
same,tumor growth of xenografts,"TOV-21G xenografts; TOV-21G, oral daily 1.5, 3 or 6 mg/kg, dose-dependent",significantly suppressed
same,IC50,seven OSA lines,> 100 nM
same,size of the S-phase population,"OCCA cells; OCCA cells, change weak in ES-2",decreased
same,sizes of sub-G1 populations,OCCA cells; six of the nine cell lines,increased in a dose-dependent manner
same,IC50,[5],< 200 nM
same,IC50,PI3Kα,15.6 nM
same,IC50,PI3Kγ,249 nM
same,anti-tumor effect compared with TOV-21G and RMG-I xenografts,ES-2 xenografts,weaker
same,estimated tumor volumes compared to the control,"ES-2 xenografts; 6 mg/kg daily, totally 8 times",smaller
same,doses suppressing phosphorylation of AKT (Thr308 and Ser473) and S6 (Ser235/236 and Ser240/244),"[1]; these doses and higher, OCCA cells",39 to 156 nM
same,"doses clearly inducing p-TP53 (Ser46), not p-TP53 (Ser15)",[6]; OVMANA cells,"156–2,500 nM"
same,level of p-MDM2,[6]; dose-dependent,reduced
same,IC50,PI3Kδ,262 nM
same,IC50,[7],< 200 nM
same,expression of p21,"[8]; 39, 156, and 2,500 nM, 24 h",did not induce
same,expression of GADD45,[8]; OVISE cells,significantly induced
same,doses inducing expression of p53AIP1 and PUMA,"[8]; OVMANA and OVISE cells, 24 h",≥ 39 nM
same,expression of TIGAR,[8]; OVMANA cells,decreased
same,IC50,PI3Kβ,1140 nM
CO[C@H]1C[C@@H]2CC[C@@H](C)[C@@](O)(O2)C(=O)C(=O)N2CCCC[C@H]2C(=O)O[C@H]([C@H](C)C[C@@H]2CC[C@@H](OC(=O)C(C)(CO)CO)[C@H](OC)C2)CC(=O)[C@H](C)/C=C(\C)[C@@H](O)[C@@H](OC)C(=O)[C@H](C)C[C@H](C)/C=C/C=C/C=C/1C [temsirolimus],clinical response,recurrent OCCA,partial response in one patient and stable disease in another patient
